The source of these data is patent EP1344776A1, “5- 2-hydroxy-3-[1-(3-trifluoromethylphenyl)-cyclopropyl]-propionylamino -phtalide and 6- 2-hydroxy-3-[1-(3-trifluoromethylphenyl)-cyclopropyl]-propionylamino -4-methyl-2,3-benzoxazin-1-one derivatives with progesterone receptor modulating activity for use in fertility control, hormone replacement …” (Schering Aktiengesellschaft, priority 2002, dated 2003).

Like-named read-outs stand apart in the source and are kept apart here.

The test system of one assay is hPR-A. The assay can be described thus: PR-A transcription assay (MTV-LUC reporter, SK-N-MC cells). It is filed as cell-based, human. The conditions noted are these: 10^-7 mol/l test compound relative to R5020 10^-7 mol/l, 24 hours, 0.1 µM. As for the experimental part: (§1) The method for screening for PR isoform-specific progestins according to the present invention is carried out with first and second SK-N-MC cells stably transfected with a plasmid expressing the hPR-A (first cells) or the hPR-B (second cells) and the LUC reporter gene linked to the hormonally responsive MTV promoter.
(§2) For the transcription assay, the cells are seeded onto 96-well dishes (2x 10^4 cells/dish) and cultured in a medium as described above, with the exception that the FCS is replaced by a 3 % charcoal stripped FCS. 48 hours later, cells are contacted with prediluted test compounds. For determination of agonistic activity, cells are cultured in the presence of increasing concentrations (10^-6 to 10^-11 mol/l) of test progestins. As a positive control for reporter gene induction cells are treated with 10^-6 to 10^-11 mol/l R5020 (promegestone). As a negative control for reporter gene induction, cells are cultured in 1 % ethanol.
(§3) Evaluation of the response gives the efficacy [%], and evaluation of the EC50 values gives the potency [nM]. Calculation of the agonistic activity is conducted as follows:
(§4) The LUC activity [%] for the measured data points is calculated as follows: relative LUC activity [%] = 100 x((response 10)^-6 (to 10)^-11 mol/l test compound - CO)/(CI - CO) [formula] wherein CI = 100 % stimulation (R5020, 10^-7 mol/l) and CO = 0 % stimulation (ethanol, 1 %).
(§5) Thus, the efficacy [%] is calculated according to: efficacy [%] = 100 x((response 10)^-7 mol/l test compound - CO)/(CI - CO) [formula]
(§6) The potency [nM], i.e. the EC50, is determined graphically.

Another assay relates to orchidectomized rats. The assay can be described thus: Androgenic / anti-androgenic activity in orchidectomized rats (prostate weight, seminal vesicle). In kind it is in vivo, rat. The conditions noted are these: prostate weight and seminal vesicle. The text has this:
The absence of androgenic as well as anti-androgenic activity in vivo was confirmed by tests performed with orchidectomized rats (change in prostate weight and in the seminal vesicle).

In another assay the test system is hPR-B. In words: PR-B transcription assay (MTV-LUC reporter, SK-N-MC cells). In kind it is cell-based, human. The settings on record: 10^-7 mol/l test compound relative to R5020 10^-7 mol/l, 24 hours, 0.1 µM. As for the experimental part:
as §1
The cells are cultured in Minimum Essential Medium with Earl's Salts (S-MEM, without L-glutamine; Gibco BRL, no. 21090-022), supplemented with 10 % fetal calf serum (FCS), penicillin 100U/streptomycin 100 µg/ml (Biochrom, no. A2213), L-glutamine 4 mmol/l (Gibco BRL, no. 25030-024), sodium pyruvate 1 mmol/l (Biochrom, no. L0473) and 1x non-essential amino acids (Biochrom, no. K0293) at a temperature of 37 °C and in an atmosphere of 5 % carbon dioxide.
as §2
After incubation with test progestins for 24 hours, the medium is removed and cells are lysed with 20 µl of lysis buffer (Luciferase Assay System E 153A; Promega) and under agitation of the plate for 10 min. After addition of 30 µl of luciferase reagent (Luciferase Assay System E 151A + 152A; Promega) within 30 seconds per plate, the activity of the luciferase reporter gene product is determined in the cell lysates by means of a Microlite ML 3000 microtiter plate luminometer (Dynatech) in cycle mode.
as §3, §4, §5, §6

In another assay the test system is female rats. In words: Ovulation inhibition test in rat. It is filed as in vivo. As for the experimental part:
Before the treatment is started, two […] cycles of female rats (weight: 190 to 210 g) were monitored. Only animals having a regular 4 day-cycle are used for the subsequent test. Starting in the metoestrus, the test compound is administered for 4 days (day 1 to 4) and the cycle is controlled thereafter.
For subcutaneous application, the test compounds are dissolved in benzyl benzoate/castor oil (1+9 v/v) and the daily dose is administered in a volume of 1 ml/kg body weight.
For peroral application, the test compounds are suspended in a carrier liquid (85 mg Myrj^R in 100 ml 0.9 % w/v NaCl solution) and the daily dose is administered in a volume of 2 ml/kg body weight.
On day 4, after the application of the test compound, those animals having estrus or metoestrus are ovariectomized under ether anesthesia on one side. Preparations of the tubes are prepared and they are investigated for ova by means of microscope. On day 5 all animals (intact and partly ovariectomized) are killed with carbon dioxide, the tubes are preserved and analyzed in the same way. It is then determined, as a percentage, in how many animals ovulation was inhibited.

Another assay has as its target T1, androgen receptor (AR) (Homo sapiens, UniProt P10275).
T1 sequence (P10275 1-920): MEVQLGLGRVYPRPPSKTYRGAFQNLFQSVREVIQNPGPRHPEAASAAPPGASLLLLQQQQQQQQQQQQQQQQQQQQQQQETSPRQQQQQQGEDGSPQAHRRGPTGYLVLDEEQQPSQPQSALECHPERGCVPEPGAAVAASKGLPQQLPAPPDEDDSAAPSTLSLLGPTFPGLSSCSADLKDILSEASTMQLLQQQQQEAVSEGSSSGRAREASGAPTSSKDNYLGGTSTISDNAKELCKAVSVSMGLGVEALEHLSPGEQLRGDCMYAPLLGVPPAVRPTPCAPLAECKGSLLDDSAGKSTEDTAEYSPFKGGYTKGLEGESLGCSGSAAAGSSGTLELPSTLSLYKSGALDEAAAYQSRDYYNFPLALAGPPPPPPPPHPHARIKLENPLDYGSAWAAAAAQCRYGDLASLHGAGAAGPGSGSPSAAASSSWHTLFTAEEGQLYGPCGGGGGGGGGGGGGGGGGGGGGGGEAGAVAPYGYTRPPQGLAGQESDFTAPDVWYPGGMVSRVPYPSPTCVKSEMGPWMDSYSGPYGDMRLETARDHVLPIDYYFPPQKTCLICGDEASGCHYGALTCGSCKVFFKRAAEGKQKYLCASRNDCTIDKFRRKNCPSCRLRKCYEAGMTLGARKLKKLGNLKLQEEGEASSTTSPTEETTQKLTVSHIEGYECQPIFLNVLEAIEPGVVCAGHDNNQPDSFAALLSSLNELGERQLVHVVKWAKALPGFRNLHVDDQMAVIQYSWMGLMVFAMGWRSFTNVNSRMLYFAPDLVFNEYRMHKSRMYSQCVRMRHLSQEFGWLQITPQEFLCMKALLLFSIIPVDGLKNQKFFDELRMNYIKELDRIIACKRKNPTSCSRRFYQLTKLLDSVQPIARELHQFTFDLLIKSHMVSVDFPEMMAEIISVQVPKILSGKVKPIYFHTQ
The assay can be described thus: Androgen receptor binding.

For the molecule `O=C1OCc2cc(NC(=O)C(O)(CC3(c4cc(C(F)(F)F)ccc4F)CC3)C(F)(F)F)ccc21` (single isomer, unassigned; (+)) [((+)-1), (+)-5-{2-hydroxy-3-[1-(2-fluoro-5-trifluoromethylphenyl)-cyclopropyl]-2-trifluoromethyl-propionylamino}-phthalide], the PR-A agonism efficacy in the assay on hPR-A was 88.7%. In the assay on orchidectomized rats, the “androgenic activity in vivo” value is recorded as “no androgenic” and the “anti-androgenic activity in vivo” value is recorded as “no anti-androgenic activity”. In the assay on hPR-B, the PR-B agonism efficacy came to 25%. The ED50 with female rats (Rattus norvegicus, ovulation inhibition, adult female rats (Table 1-a), read-out: ED50) was 0.045 mg/kg. In the assay with female rats (ovulation inhibition, rat, dose 10 µg/kg, days 1 to 4), the “% Inhibition” value was 0%. In addition, the ED50 in the assay on female rats (rat (Table 1-b), read-out: Ovulation Inhibition (rat) [ED50]) was 0.04 mg/kg. In addition, the “binding affinity for the androgen receptor (AR)” value at androgen receptor (AR) is on record as “moderate”.
